Our source for the IC50 and concentration values is patent US10125125B2, “N-(heteroaryl)-sulfonamide derivatives useful as S100-inhibitors” (Active Biotech AB, priority 2013, dated 2018).

Structures are written as SMILES. Like-named read-outs stand apart in the source and are kept apart here.

For data set [1], the target named is biotinylated human S100A9 : rhRAGE-Fc interaction (Homo sapiens (Human), UniProt P06702). Description: AlphaScreen inhibition assay, Biot-hS100A9:hRAGE-Fc (S100A9-RAGE inhibition assay). It counts as binding. The source says:
FIG. 1 is a schematic representation of an assay of the inhibition of the interaction between biotinylated human S100A9 and human RAGE-Fc using a small molecule S100A9 binder.
Inhibition Assay, Biot-hS100A9:hRAGE-Fc
The AlphaScreen (Amplified Luminescent Proximity Homogeneous Assay) contains two types of beads, Alpha Donor beads and Acceptor beads (PerkinElmer). Upon laser excitation at 680 nm a photosensitizer in the Donor bead converts ambient oxygen to a more excited singlet state. The singlet oxygen molecule diffuses (maximum 200 nm) to react with a thioxene derivative in the Acceptor bead and generates a chemiluminescence reaction. Fluorophores in the Acceptor bead subsequently emit light at 520-620 nm which can be detected in the EnVision® Multilabel plate Reader (PerkinElmer). The beads are light sensitive and all work with the beads is performed under subdued light conditions or using green filters on light sources (Roscolux Chroma Green #389, Rosco).
In the AlphaScreen Inhibition Assay described here, protein A (Staphylococcus aureus) conjugated Acceptor beads are used together with streptavidin coated Donor beads (Perkin Elmer 6760617M). The Acceptor beads are pre-incubated with Fc-tagged recombinant human RAGE (rhRAGE-Fc) allowing binding of the rhRAGE-Fc to protein A on the beads. Biotinylated human S100A9 (biot-hS100A9) is pre-incubated with the low molecular test compounds. The pre-mixes are then added to the wells of a micro-plate and incubated allowing interaction between biot-hS100A9 and rhRAGE-Fc. Subsequent addition of streptavidin coated Donor beads causes binding of the streptavidin to the biotinylated hS100A9. After an additional incubation the signal is measured.
Without inhibitory compounds, the interaction of biot-hS100A9 to rhRAGE-Fc will bring the Acceptor and Donor beads in close proximity thus generating a high signal. With an inhibitor present the complex will not form resulting in a decreased signal.
Chemicals and reagents. • AlphaScreen® General IgG (Protein A) Detection Kit, (PerkinElmer 6760617M) • HBS-P buffer (GE Healthcare, BR-1003-68) • HBS-N buffer (GE Healthcare, BR-1003-69) • CaCl2 in HBS-P • ZnCl2 in Milli-Q water • DMSO • Biotinylated hS100A9, (biotinylated via cystein by EZ-link Iodoacetyl-PEG2-Biotin reagent (Pierce no. 21334), in HBS-N • rhRAGE-Fc (R&D Systems, 1145-RG-50), in HBS-P
The AlphaScreen assay method is used for screening of the inhibitory effect of different compound samples at fixed concentrations or for IC50 determination by varying the compound concentrations. Samples of test compounds and references are prepared from solutions in DMSO. Relevant reference inhibitors and DMSO are used as controls for defined inhibition and non-inhibition, respectively in the assay. The percent inhibition in assay for test compounds and references are calculated by comparing their obtained assay signals with the signal values for the control with only DMSO (no compound).
Assay concentration of biotinylated hS100A9 and rhRAGE-Fc are batch dependent, and are determined and defined by separate cross-titration experiments using this AlphaScreen inhibition method to verify the optimal setup regarding signal strength and achievement of a defined inhibition with relevant reference compounds. The Final assay concentrations of Acceptor and Donor beads are 20 μg/mL.
Experimental Set Up for Screening, Preparation of Solutions and Beads.
Assay buffer is prepared by adding CaCl2 and ZnCl2 to HBS-P and is used freshly prepared in the experiment.
Biotin-hS100A9 solution for the experiment is prepared by dilution of appropriate amount of stock solution biot-hS100A9 in assay buffer (with CaCl2 and ZnCl2) and incubation in room temperature for 30 minutes.
rhRAGE-Fc solution for the experiment is prepared by dilution appropriate amount of rhRAGE-Fc stock in assay buffer.
Protein A Acceptor beads are diluted in assay buffer and are added to an equal volume of the prepared diluted rhRAGE-Fc solution.
(In general: Bead proximity is the source of the signal in Alpha formats.)

A short description of data set [2]: Prodrug assay: plasma concentrations of prodrugs and demethylated parents after cassette dosing, LC-MS. Particulars: C57 Bl/6, mouse, solution, read-out: Parent (demethylated compound) Conc. in plasma after prodrug dosing. It is filed as in vivo, C57 Bl/6 mice. As for the experimental part: ABR-239313, 239470 and 239749 were administered to seven C57 Bl/6 mice as a cassette formulation either intravenously (4 animals, nominal 1 mg/kg) or per oral (3 animals, nominal 5 mg/kg).
Blood samples were collected at time points ranging from 5 minutes to 7 hours after administration. After sample withdrawal, plasma was directly separated and frozen until analysis.
The plasma as well as the formulation samples were analyzed with respect to the concentration of ABR-239313, 239470, 239749 and the corresponding demethylated compounds, i.e. Examples 9, 75 and 73 (ABR-239247, 239417 and 239167) by means of LC-MS.
The samples were precipitated with acidified acetonitrile and centrifuged prior to injection on LC-MS system (consisting of a triple quadrupole instrument operated in negative MRM ionization mode, and a fast-gradient reversed-phase LC on a Symmetry Shield RP18, 2×30 mm, 3.5 um column).
In Table 3 the concentrations of each analyte are presented.

Where [3] appears, read: intravenous, i.v. cassette of prodrugs, nominal 1 mg/kg.
The mark [4] stands for this setting: oral, p.o. cassette of prodrugs, nominal 5 mg/kg.

Sequence of biotinylated human S100A9 : rhRAGE-Fc interaction (P06702 whole entry): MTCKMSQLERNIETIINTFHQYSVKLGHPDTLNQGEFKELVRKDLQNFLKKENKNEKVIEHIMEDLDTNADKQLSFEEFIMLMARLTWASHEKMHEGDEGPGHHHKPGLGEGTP

In general, IC50 refers to the concentration needed to halve the response being measured. For the compound `O=S(=O)(Cc1ccc(Cl)c(Cl)c1)Nc1ncc(Br)nc1O` [Example 75, N-(5-bromo-3-hydroxypyrazin-2-yl)-1-(3,4-dichlorophenyl)methanesulfonamide], the IC50 in data set [1] was 250 nM. In data set [2] (setting [3]), the concentration at 0.083 h was 120 nM, the concentration at 0.5 h was 320 nM, the concentration at 1 h turned out to be 320 nM and the concentration at 2 h worked out at 320 nM. Further, in data set [2] (setting [3]), the concentration at 4 h turned out to be 210 nM and the concentration at 7 h was found to be 200 nM. For the same compound, in data set [2] (setting [4]), the concentration at 0.5 h worked out at 570 nM, the concentration at 1 h stood at 860 nM, the concentration at 2 h was 800 nM and the concentration at 4 h came to 630 nM. The concentration at 7 h in data set [2] (setting [4]) was determined as 1100 nM.
For the compound `O=S(=O)(Nc1cnc(Cl)cc1O)c1cc(Cl)sc1Cl` [Example 73, 2,5-dichloro-N-(6-chloro-4-hydroxypyridin-3-yl)thiophene-3-sulfonamide], the half-maximal inhibitory concentration (IC50) in data set [1] turned out to be 1200 nM. Also, in data set [2] (setting [3]), the concentration at 0.083 h worked out at 89 nM, the concentration at 0.5 h is 200 nM, the concentration at 1 h worked out at 190 nM and the concentration at 2 h turned out to be 210 nM. Also, in data set [2] (setting [3]), the concentration at 4 h turned out to be 180 nM and the concentration at 7 h is 130 nM. In data set [2] (setting [4]), the concentration at 0.5 h was determined as 460 nM, the concentration at 1 h was found to be 490 nM, the concentration at 2 h is 690 nM and the concentration at 4 h came out at 610 nM. Moreover, in data set [2] (setting [4]), the concentration at 7 h was 780 nM.
As for `O=S(=O)(Cc1cc(Cl)cc(Cl)c1)Nc1ncc(Cl)cc1O` [Example 9, N-(5-chloro-3-hydroxypyridin-2-yl)-1-(3,5-dichlorophenyl)methanesulfonamide], the IC50 in data set [1] came out at 120 nM. Besides, in data set [2] (setting [3]), the concentration at 0.083 h is 44 nM, the concentration at 0.5 h amounted to 5 nM, the concentration at 1 h was found to be 3 nM and the concentration at 2 h worked out at 6 nM. In addition, in data set [2] (setting [3]), the concentration at 4 h turned out to be 4 nM and the concentration at 7 h was 4 nM. In data set [2] (setting [4]), the concentration at 0.5 h worked out at 45 nM, the concentration at 1 h was determined as 26 nM, the concentration at 2 h was found to be 21 nM and the concentration at 4 h stood at 12 nM. Further, the concentration at 7 h in data set [2] (setting [4]) was 19 nM.
